Results as given in patent US9926318B2, “Tetracyclic autotaxin inhibitors” (PharmAkea, Inc., priority 2013, dated 2018).

Target: human autotaxin (ATX) (Homo sapiens (Human), UniProt Q13822)
Assay: Human autotaxin assay (choline release from LPC, Hep3B conditioned media)
Format: biochemical
Conditions: concentrated conditioned media from Hep3B cells, LPC substrate
Protocol: ATX activity is assayed in concentrated conditioned media from Hep3B human hepatocellular carcinoma cells by measuring the amount of choline released from the substrate, lysophosphatidylcholine (LPC) as it is cleaved to LPA. Conditioned media is collected from confluent Hep3B cells and concentrated 20-fold using Centriprep-30 filter devices (Millipore). […] 100 μl of a color mix containing 4.5 mM 4-aminoantipyrine, 2.7 mM N-ethyl-N-(2-hydroxy-3-sulfopropyl)-m-toluidine, 21 units/ml horseradish peroxidase and 3 units/ml choline oxidase in 50 mM Tris, pH 8, 4.5 mM MgCl2 is added and the incubation continued for 15 minutes at room temperature before reading the absorbance at 555 nm.
Compound `O=C(O)CCCN1C(=O)C2Cc3c(n(Cc4ccc(F)cc4)c4ccccc34)CN2C1=O` (racemic) [Compound 1-1, 4-(6-(4-fluorobenzyl)-1,3-dioxo-11,11a-dihydro-1H-imidazo[1′,5′:1,6]pyrido[3,4-b]indol-2(3H,5H,6H)-yl)butanoic acid] has an IC50 of less than 500 nM.
Work on `O=C1NC(=O)N2Cc3c(c4ccccc4n3Cc3ccc(F)cc3)CC12` (racemic) [Compound 1-15, 6-(4-fluorobenzyl)-5,6,11,11a-tetrahydro-1H-imidazo[1′,5′:1,6]pyrido[3,4-b]indole-1,3(2H)-dione] yielded an IC50 of less than 500 nM.
In the case of `CC(C)(CC(=O)O)CN1C(=O)[C@@H]2Cc3c(n(Cc4ccc(F)cc4)c4ccccc34)CN2C1=O` [Compound 1-42, (S)-4-(6-(4-fluorobenzyl)-1,3-dioxo-5,6,11,11a-tetrahydro-1H-imidazo[1′,5′:1,6]pyrido[3,4-b]indol-2(3H)-yl)-3,3-dimethylbutanoic acid], the IC50 is reported as less than 500 nM.
Work on `O=C(O)CCN1C(=O)[C@@H]2Cc3c(n(Cc4ccc(Cl)nc4)c4ccccc34)CN2C1=O` [Compound 1-84, (S)-3-(6-((6-chloropyridin-3-yl)methyl)-1,3-dioxo-5,6,11,11a-tetrahydro-1H-imidazo[1′,5′:1,6]pyrido[3,4-b]indol-2(3H)-yl)propanoic acid] yielded an IC50 of less than 500 nM.
`O=C(O)CCN1C(=O)[C@@H]2Cc3c(n(Cc4cnc(C(F)(F)F)s4)c4ccccc34)CN2C1=O` [Compound 1-102, (S)-3-(1,3-dioxo-6-((2-(trifluoromethyl)thiazol-5-yl)methyl)-11,11a-dihydro-1H-imidazo[1′,5′:1,6]pyrido[3,4-b]indol-2(3H,5H,6H)-yl)propanoic acid] gave an IC50 of less than 500 nM.
`O=C1C2Cc3c(n(Cc4ccc(F)cc4)c4ccccc34)CN2C(=O)N1CCO` (centres unmarked) [Compound 1-121, 6-(4-fluorobenzyl)-2-(2-hydroxyethyl)-5,6,11,11a-tetrahydro-1H-imidazo[1′,5′:1,6]pyrido[3,4-b]indole-1,3(2H)-dione] gave an IC50 of less than 500 nM.
For `O=C1NC(=O)N2Cc3c(c4ccccc4n3Cc3ccc(F)cc3)C[C@@H]12` [Compound 1-130, (S)-6-(4-fluorobenzyl)-5,6,11,11a-tetrahydro-1H-imidazo[1′,5′:1,6]pyrido[3,4-b]indole-1,3(2H)-dione], the IC50 was less than 500 nM.
With `COc1ccc(Cn2c3c(c4ccccc42)C[C@H]2C(=O)N(CCC(=O)O)C(=O)N2C3)cc1` [Compound 1-131, (S)-3-(6-(4-methoxybenzyl)-1,3-dioxo-11,11a-dihydro-1H-imidazo[1′,5′:1,6]pyrido[3,4-b]indol-2(3H,5H,6H)-yl)propanoic acid] the IC50 was less than 500 nM.
`O=C(O)CCN1C(=O)[C@@H]2Cc3c(n(Cc4ccc(Cl)cc4Cl)c4ccccc34)CN2C1=O` [Compound 1-132, (S)-3-(6-(2,4-dichlorobenzyl)-1,3-dioxo-11,11a-dihydro-1H-imidazo[1′,5′:1,6]pyrido[3,4-b]indol-2(3H,5H,6H)-yl)propanoic acid] showed an IC50 of less than 500 nM.
Compound `O=C(O)CCN1C(=O)[C@@H]2Cc3c(n(Cc4ccc(Cl)cc4F)c4ccccc34)CN2C1=O` [Compound 1-133, (S)-3-(6-(4-chloro-2-fluorobenzyl)-1,3-dioxo-11,11a-dihydro-1H-imidazo[1′,5′:1,6]pyrido[3,4-b]indol-2(3H,5H,6H)-yl)propanoic acid] has an IC50 of less than 500 nM.
Work on `O=C(O)CCN1C(=O)[C@@H]2Cc3c(n(Cc4ccc(F)cc4F)c4ccccc34)CN2C1=O` [Compound 1-134, (S)-3-(6-(2,4-difluorobenzyl)-1,3-dioxo-11,11a-dihydro-1H-imidazo[1′,5′:1,6]pyrido[3,4-b]indol-2(3H,5H,6H)-yl)propanoic acid] yielded an IC50 of less than 500 nM.
Compound `O=C(O)CCN1C(=O)[C@@H]2Cc3c(n(Cc4ccc(F)nc4)c4ccccc34)CN2C1=O` [Compound 1-135, (S)-3-(6-((6-fluoropyridin-3-yl)methyl)-1,3-dioxo-11,11a-dihydro-1H-imidazo[1′,5′:1,6]pyrido[3,4-b]indol-2(3H,5H,6H)-yl)propanoic acid] has an IC50 of less than 500 nM.
With `O=C(O)CCN1C(=O)N2Cc3c(c4ccccc4n3Cc3ccc(F)cc3)C[C@H]2C1=S` [Compound 1-141, (S)-3(6-(4-fluorobenzyl)-3-oxo-1-thioxo-5,6,11,11a-tetrahydro-1H-imidazo[1′,5′:1,6]pyrido[3,4-b]indol-2(3H)-yl)propanoic acid] the IC50 was greater than 1000 nM.
Work on `CS(=O)(=O)NC(=O)CCN1C(=O)[C@@H]2Cc3c(n(Cc4ccc(F)cc4)c4ccccc34)CN2C1=O` [Compound 1-142, (S)-3-(6-(4-fluorobenzyl)-1,3-dioxo-11,11a-dihydro-1H-imidazo[1′,5′:1,6]pyrido[3,4-b]indol-2(3H,5H,6H)-yl)-N-(methylsulfonyl)propanamide] yielded an IC50 of less than 500 nM.
`O=C(CCN1C(=O)[C@@H]2Cc3c(n(Cc4ccc(F)cc4)c4ccccc34)CN2C1=O)NS(=O)(=O)c1ccccc1` [Compound 1-143, (S)-3-(6-(4-fluorobenzyl)-1,3-dioxo-11,11a-dihydro-1H-imidazo[1′,5′:1,6]pyrido[3,4-b]indol-2(3H,5H,6H)-yl)-N-(phenylsulfonyl)propanamide] showed an IC50 of less than 500 nM.
Compound `CC1(C)c2c(n(Cc3ccc(F)cc3)c3ccccc23)CN2C(=O)N(CCC(=O)O)C(=O)C21` (centres unmarked) [Compound A11, 3-(6-(4-fluorobenzyl)-11,11-dimethyl-1,3-dioxo-5,6,11,11a-tetrahydro-1H-imidazo[1′,5′:1,6]pyrido[3,4-b]indol-2(3H)-yl)propanoic acid] has an IC50 of less than 500 nM.
With `CC12Cc3c(n(Cc4ccc(F)cc4)c4ccccc34)CN1C(=O)N(CCC(=O)O)C2=O` (centres unmarked) [Compound A113, 3-(6-(4-fluorobenzyl)-11a-methyl-1,3-dioxo-11,11a-dihydro-1H-imidazo[1′,5′:1,6]pyrido[3,4-b]indol-2(3H,5H,6H)-yl)propanoic acid] the IC50 was greater than 1000 nM.
Work on `CC1(C)c2c(n(Cc3ccc(F)cc3)c3ncccc23)CN2C(=O)N(CCC(=O)O)C(=O)C21` (centres unmarked) [Compound C11, 3-{8-[(p-fluorophenyl)methyl]-16,16-dimethyl-12,14-dioxo-6.8.11.13-tetrazatetracyclo[7.7.0.02,7.011,15]hexadeca-1(9),2(7),3,5-tetraene-13-yl}propionic acid] yielded an IC50 of less than 500 nM.
In the case of `O=C1NC(=O)N2Cc3c(c4cccnc4n3Cc3ccc(F)cc3)CC12` (centres unmarked) [Compound C109], the IC50 is reported as less than 500 nM.
With `CC(C)(CN1C(=O)C2Cc3c(n(Cc4ccc(F)cc4)c4ncccc34)CN2C1=O)C(=O)O` (centres unmarked) [Compound C111, 3-{8-[(p-fluorophenyl)methyl]-12,14-dioxo-6.8.11.13-tetrazatetracyclo[7.7.0.02,7.011,15]hexadeca-1(9),2(7),3,5-tetraene-13-yl}-2,2-dimethyl propionic acid] the IC50 was less than 500 nM.
With `O=C(O)CCN1C(=O)C2Cc3c(n(Cc4ccc(F)cc4)c4ncccc34)CN2C1=O` (centres unmarked) [Compound C114, 3-{8-[(4-fluorophenyl)methyl]-12,14-dioxo-6.8.11.13-tetraazatetracyclo[7.7.0.02, 7.011,15]hexadeca-1(9),2(7),3,5-tetraen-13-yl}propionic acid] the IC50 was less than 500 nM.
In the case of `O=C(O)CCN1C(=O)[C@@H]2Cc3c(n(Cc4ccc(F)cc4)c4ccccc34)CN2C1=S` [Compound E1, (S)-3-(6-(4-fluorobenzyl)-1-oxo-3-thioxo-5,6,11,11a-tetrahydro-1H-imidazo[1′,5′:1,6]pyrido[3,4-b]indol-2(3H)-yl)propanoic acid], the IC50 is reported as greater than 1000 nM.
Work on `O=C1NC(=S)N2Cc3c(c4ccccc4n3Cc3ccc(F)cc3)C[C@@H]12` [Compound E2, (S)-6-(4-fluorobenzyl)-3-thioxo-2,3,5,6,11,11a-hexahydro-1H-imidazo[1′,5′:1,6]pyrido[3,4-b]indol-1-one] yielded an IC50 of less than 500 nM.
Compound `O=C1NC(=S)N2Cc3c(c4cccnc4n3Cc3ccc(F)cc3)CC12` (centres unmarked) [Compound E3] has an IC50 of less than 500 nM.

Tested on: not listed separately
Assay: rat male reproductive tissue toxicity study
Format: in vivo
Conditions: dosed at 300 mpk PO for 5 days
Protocol: In some embodiments, male reproductive tissue toxicity can be assessed in suitable in vivo models. In some embodiments, male reproductive tissue toxicity is assessed by monitoring any decreases in the testes weight and/or epididymis weight.
In the case of `O=C(O)CCCN1C(=O)C2Cc3c(n(Cc4ccc(F)cc4)c4ccccc34)CN2C1=O` (racemic) [Compound 1-1, 4-(6-(4-fluorobenzyl)-1,3-dioxo-11,11a-dihydro-1H-imidazo[1′,5′:1,6]pyrido[3,4-b]indol-2(3H,5H,6H)-yl)butanoic acid], the “decreases in the testes weight (as a percentage of body weight)” value is reported as “no decreases in the testes weight”.
For `O=C1NC(=O)N2Cc3c(c4ccccc4n3Cc3ccc(F)cc3)CC12` (racemic) [Compound 1-15, 6-(4-fluorobenzyl)-5,6,11,11a-tetrahydro-1H-imidazo[1′,5′:1,6]pyrido[3,4-b]indole-1,3(2H)-dione], the “decreases in the testes weight (as a percentage of body weight)” value was “no decreases in the testes weight”.

Same assay, conditions: rat male reproductive tissue toxicity study
For `O=C(O)CCCN1C(=O)C2Cc3c(n(Cc4ccc(F)cc4)c4ccccc34)CN2C1=O` (racemic) [Compound 1-1, 4-(6-(4-fluorobenzyl)-1,3-dioxo-11,11a-dihydro-1H-imidazo[1′,5′:1,6]pyrido[3,4-b]indol-2(3H,5H,6H)-yl)butanoic acid], the “decreases in testes weight” value was “did not exhibit the same effects”.
For `O=C1NC(=O)N2Cc3c(c4ccccc4n3Cc3ccc(F)cc3)CC12` (racemic) [Compound 1-15, 6-(4-fluorobenzyl)-5,6,11,11a-tetrahydro-1H-imidazo[1′,5′:1,6]pyrido[3,4-b]indole-1,3(2H)-dione], the “decreases in testes weight” value was “did not exhibit the same effects”.
With `O=C(O)CCN1C(=O)[C@@H]2Cc3c(n(Cc4ccc(F)cc4)c4ccccc34)CN2C1=O` [Compound 1-5, (S)-3-(6-(4-fluorobenzyl)-1,3-dioxo-5,6,11,11a-tetrahydro-1H-imidazo[1′,5′:1,6]pyrido[3,4-b]indol-2(3H)-yl)propanoic acid] the “decreases in testes weight” value was “undesired decreases in testes weight”.
